Assay results reported in publication PMC5915086 (Oncotarget, 2018).
Entries after “also recorded” stand apart in the source; their conditions may differ.

What was measured:
PRMT3 = molecular target: T1, PRMT3 (Homo sapiens, UniProt O60678); assay: PRMT3 methyltransferase scintillation proximity assay; assay type: biochemical
T1 construct: 106–426 (within the); made in house
Method: (§4) In the scintillation proximity assay (SPA), specific amounts of enzyme and biotinylated peptide substrate were mixed with the compound and the reaction was initiated by adding SAM. IC50 values were measured at the apparent Km concentrations of the substrate and SAM. The reaction was quenched by adding an equal volume of 7.5 M guanidine hydrochloride, and the reaction product was measured by SPA using FlashPlate Plus and TopCount NXT HTS plate reader (both from Perkin Elmer Life Sciences).
(§5) The selectivity assay was performed as previously described [31]. The effect of test compounds on the methyltransferase activities of Euchromatic histone-lysine N-methyltransferase 2 (G9a), G9a-like protein (GLP), Suppressor of variegation 3-9 homolog (SUV39H)1, SUV39H2, SUV420H1, SUV420H2, SET domain (SETD)2, SETD8, SETD bifurcated 1 (SETDB1), SETD7, Mixed-lineage leukemia (MLL)1 trimeric complex, MLL3 pentameric complex, Enhancer of zeste homolog (EZH)2 trimeric complex, PRMT1, PRMT3, PRMT4, PRMT5/Methylosome protein (MEP)50 complex, PRMT6, PRMT7, PRMT8, PRMT9, PR domain zinc finger protein (PRDM)9, SET and MYND domain-containing (SMYD)2, SMYD3, and DNA methyltransferase (DNMT)1 was assessed by monitoring the incorporation of a tritium-labeled methyl group into substrates with the scintillation proximity assay [32]. […]

NCI-H929 cells = assay: Cell cycle analysis by flow cytometry (DNA content); assay type: cell-based, human; conditions: for G1 cell fraction / G2-M cell fraction / S cell fraction / sub-G1 cell fraction: NCI-H929, 1 μM, 72 h
Method: To measure DNA content for cell cycle distribution analysis, cells were incubated with 70% ethanol/PBS (v/v) overnight. Fixed cells were stained with propidium iodide and analyzed on a FACS LSRFortessa system (BD Biosciences, Franklin Lakes, NJ, USA).

K562 cells = assay: K562 cell viability, SYTOX Blue flow cytometry; assay type: cell-based; conditions: 3 μM TP-064, 5 μM SGC0946, 6 days; preliminary experiments
Method: (§1) Chemiluminescence was measured with a microplate reader. […] K562 cells were cultured in RPMI 10% FBS.
growth. […] The inhibitors were topped up after
3 days. After 6 days, cells were stained with SYTOX Blue dead cell stain and the number of viable cells was determined by flow cytometry.
Data are presented as mean ± SD (n = 5). The predicted additive effect was calculated as Fa + Fb × (1 − Fa), where Fa and Fb are the
(§2) (1 picture or pasted object on this page, not shown here)

PRMT6 = molecular target: T2, PRMT6 (Homo sapiens, UniProt Q96LA8); assay: PRMT6 methyltransferase scintillation proximity assay; assay type: biochemical
T2 construct: 1–375; made in house
T2 sequence (Q96LA8 whole entry): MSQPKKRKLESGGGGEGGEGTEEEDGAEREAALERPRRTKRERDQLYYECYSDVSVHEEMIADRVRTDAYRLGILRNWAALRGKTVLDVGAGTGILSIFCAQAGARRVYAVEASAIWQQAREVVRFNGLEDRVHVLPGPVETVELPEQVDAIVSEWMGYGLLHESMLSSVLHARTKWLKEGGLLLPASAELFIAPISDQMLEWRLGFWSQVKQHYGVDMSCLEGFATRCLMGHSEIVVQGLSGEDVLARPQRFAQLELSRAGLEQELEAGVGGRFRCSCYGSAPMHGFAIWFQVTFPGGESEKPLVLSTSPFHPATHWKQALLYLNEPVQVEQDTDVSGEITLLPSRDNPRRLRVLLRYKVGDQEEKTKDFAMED
Method: as §4, §5

PRMT9 = molecular target: T3, PRMT9 (Homo sapiens, UniProt Q6P2P2); assay: PRMT9 methyltransferase scintillation proximity assay; assay type: biochemical
T3 construct: 1–845; made in house
T3 sequence (Q6P2P2 whole entry): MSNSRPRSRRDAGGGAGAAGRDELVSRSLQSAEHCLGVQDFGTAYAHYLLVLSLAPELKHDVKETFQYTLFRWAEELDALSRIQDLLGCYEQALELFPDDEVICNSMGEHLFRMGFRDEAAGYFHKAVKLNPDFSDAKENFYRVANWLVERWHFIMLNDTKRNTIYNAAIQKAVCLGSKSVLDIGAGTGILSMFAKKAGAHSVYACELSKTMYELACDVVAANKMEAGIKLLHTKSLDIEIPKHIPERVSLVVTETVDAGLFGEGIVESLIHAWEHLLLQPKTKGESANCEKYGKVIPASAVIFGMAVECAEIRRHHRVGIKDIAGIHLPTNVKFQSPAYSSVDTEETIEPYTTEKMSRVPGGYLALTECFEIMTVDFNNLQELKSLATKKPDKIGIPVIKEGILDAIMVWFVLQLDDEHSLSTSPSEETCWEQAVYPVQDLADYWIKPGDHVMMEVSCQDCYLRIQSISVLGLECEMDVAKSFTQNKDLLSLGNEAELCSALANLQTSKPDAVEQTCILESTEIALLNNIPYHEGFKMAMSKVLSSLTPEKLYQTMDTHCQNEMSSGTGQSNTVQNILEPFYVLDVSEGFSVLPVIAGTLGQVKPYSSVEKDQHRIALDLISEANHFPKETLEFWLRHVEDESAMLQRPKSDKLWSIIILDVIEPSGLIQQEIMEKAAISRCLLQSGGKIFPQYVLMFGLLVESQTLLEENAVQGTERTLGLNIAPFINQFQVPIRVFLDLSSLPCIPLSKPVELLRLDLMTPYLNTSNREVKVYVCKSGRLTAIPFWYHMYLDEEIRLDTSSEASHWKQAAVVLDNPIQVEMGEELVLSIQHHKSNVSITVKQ
Method: as §4

[1] = molecular target: T4, PRMT5/Methylosome protein (MEP)50 complex (Homo sapiens, UniProt O14744); assay: PRMT5 methyltransferase scintillation proximity assay; assay type: biochemical
T4 construct: 1–637 (PRMT5); made in house
T4 sequence (O14744 whole entry): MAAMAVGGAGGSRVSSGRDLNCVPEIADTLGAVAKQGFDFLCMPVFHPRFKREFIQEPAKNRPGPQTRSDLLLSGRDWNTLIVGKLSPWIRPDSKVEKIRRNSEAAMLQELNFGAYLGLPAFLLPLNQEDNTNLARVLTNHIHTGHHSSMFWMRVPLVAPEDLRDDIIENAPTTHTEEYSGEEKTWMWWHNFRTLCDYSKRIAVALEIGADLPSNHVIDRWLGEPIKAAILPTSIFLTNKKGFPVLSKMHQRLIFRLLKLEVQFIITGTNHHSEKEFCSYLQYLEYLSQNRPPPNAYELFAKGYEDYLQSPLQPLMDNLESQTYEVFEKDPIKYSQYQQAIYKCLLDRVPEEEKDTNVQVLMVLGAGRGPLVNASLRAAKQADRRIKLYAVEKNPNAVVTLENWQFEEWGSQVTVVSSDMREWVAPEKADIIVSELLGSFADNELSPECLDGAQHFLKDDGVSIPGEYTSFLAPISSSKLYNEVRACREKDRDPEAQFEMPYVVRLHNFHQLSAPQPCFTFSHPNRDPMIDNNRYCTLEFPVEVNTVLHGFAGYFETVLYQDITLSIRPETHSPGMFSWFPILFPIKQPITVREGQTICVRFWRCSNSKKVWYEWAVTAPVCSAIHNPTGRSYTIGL
T4 sequence (Q9BQA1 whole entry partner): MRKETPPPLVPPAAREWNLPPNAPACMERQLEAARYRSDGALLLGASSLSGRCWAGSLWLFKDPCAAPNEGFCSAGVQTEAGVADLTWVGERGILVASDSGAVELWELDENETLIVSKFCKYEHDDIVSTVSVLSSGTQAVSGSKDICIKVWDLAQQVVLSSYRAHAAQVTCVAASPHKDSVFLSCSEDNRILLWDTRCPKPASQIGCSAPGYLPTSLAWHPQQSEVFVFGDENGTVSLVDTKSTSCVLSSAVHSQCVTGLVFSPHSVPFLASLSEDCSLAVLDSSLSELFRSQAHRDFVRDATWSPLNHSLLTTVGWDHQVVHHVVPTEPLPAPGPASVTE
Method: as §4, §5

[2] = tested on: 24 protein lysine methyltransferases and DNA methyltransferases; assay: Selectivity assay against other methyltransferases; assay type: biochemical; conditions: for inhibition of other methyltransferases: tested at 1 and 10 μM
Method: The selectivity assay was performed as previously described [31]. The effect of test compounds on the methyltransferase activities of Euchromatic histone-lysine N-methyltransferase 2 (G9a), G9a-like protein (GLP), Suppressor of variegation 3-9 homolog (SUV39H)1, SUV39H2, SUV420H1, SUV420H2, SET domain (SETD)2, SETD8, SETD bifurcated 1 (SETDB1), SETD7, Mixed-lineage leukemia (MLL)1 trimeric complex, MLL3 pentameric complex, Enhancer of zeste homolog (EZH)2 trimeric complex, PRMT1, PRMT3, PRMT4, PRMT5/Methylosome protein (MEP)50 complex, PRMT6, PRMT7, PRMT8, PRMT9, PR domain zinc finger protein (PRDM)9, SET and MYND domain-containing (SMYD)2, SMYD3, and DNA methyltransferase (DNMT)1 was assessed by monitoring the incorporation of a tritium-labeled methyl group into substrates with the scintillation proximity assay [32]. Briefly, a 10-μl reaction containing ^3H-SAM and substrate at concentrations close to the apparent Km values for each enzyme was prepared. Two concentrations (1 and 10 μM) of compound were tested. The reactions were quenched with 10 μl of 7.5 M guanidine hydrochloride; 180 μl of 20 mM Tris buffer (pH 8.0) were added, and the mixture was transferred to a 96-well FlashPlate followed by incubation for 1 h. The counts per minute (CPM) was measured on a TopCount plate reader; the CPM in the absence of compound or enzyme was defined as 100% activity and background (0%), respectively, for each dataset.

KMS-12BM cells = assay: MM cell growth, CellTiter-Glo, 6 days; assay type: cell-based, human
Method: (§3) Red dots indicate MM cell lines. […] Data are presented as mean ± standard deviation (n = 3). IC50 values were calculated by nonlinear regression analysis of % inhibition. […] ATP concentration was calculated based on chemiluminescence values relative to the 0 nM value (control) in each cell line. PRMT4 mRNA expression levels in MM cells were determined with the Ion Ampliseq transcriptome assay and were normalized to that of glyceraldehyde 3-phosphate dehydrogenase (GAPDH) in each cell line.
as §1

KMS-28BM cells = assay: MM cell growth, CellTiter-Glo, 6 days; assay type: cell-based, human
Method: as §3, §1

KMS-12PE cells = assay: MM cell growth, CellTiter-Glo, 6 days; assay type: cell-based, human
Method: as §3, §1

KMS-27 cells = assay: MM cell growth, CellTiter-Glo, 6 days; assay type: cell-based, human; conditions: KMS-27, 6 days
Method: as §3, §1

MM.1S cells = assay: MM cell growth, CellTiter-Glo, 6 days; assay type: cell-based, human
Method: as §3, §1

KMS-20 cells = assay: MM cell growth, CellTiter-Glo, 6 days; assay type: cell-based, human; conditions: KMS-20, 6 days
Method: as §3, §1

U266B1 cells = assay: MM cell growth, CellTiter-Glo, 6 days; assay type: cell-based, human; conditions: U266B1, 6 days
Method: as §3, §1

KMS-11 cells = assay: MM cell growth, CellTiter-Glo, 6 days; assay type: cell-based, human; conditions: KMS-11, 6 days
Method: as §3, §1

RPMI8226 cells = assay: MM cell growth, CellTiter-Glo, 6 days; assay type: cell-based, human; conditions: RPMI8226, 6 days
Method: as §3, §1

KMS-26 cells = assay: MM cell growth, CellTiter-Glo, 6 days; assay type: cell-based, human; conditions: KMS-26, 6 days
Method: as §3, §1

MM.1R cells = assay: MM cell growth, CellTiter-Glo, 6 days; assay type: cell-based, human
Method: as §3, §1

[3] = tested on: BAF155 dimethylation in NCI-H929 cells; assay: BAF155 dimethylation in MM cells, western blotting; assay type: cell-based, human
Method: (§6) The lysates were separated by SDS-polyacrylamide gel electrophoresis and transferred to a nitrocellulose membrane using an iBlot Transfer Stack and iBlot Gel Transfer Device (Thermo Fisher Scientific, Waltham, MA, USA). […] The membrane was incubated with ImmunoStar LD (Wako Pure Chemical Industries, Osaka, Japan), and signals were detected with an ImageQuant LAS-3000 imaging system (Fujifilm, Tokyo, Japan).

PRMT8 = molecular target: T5, PRMT8 (Homo sapiens, UniProt Q9NR22); assay: PRMT8 methyltransferase scintillation proximity assay; assay type: biochemical
T5 construct: 1–394; made in house
T5 sequence (Q9NR22 whole entry): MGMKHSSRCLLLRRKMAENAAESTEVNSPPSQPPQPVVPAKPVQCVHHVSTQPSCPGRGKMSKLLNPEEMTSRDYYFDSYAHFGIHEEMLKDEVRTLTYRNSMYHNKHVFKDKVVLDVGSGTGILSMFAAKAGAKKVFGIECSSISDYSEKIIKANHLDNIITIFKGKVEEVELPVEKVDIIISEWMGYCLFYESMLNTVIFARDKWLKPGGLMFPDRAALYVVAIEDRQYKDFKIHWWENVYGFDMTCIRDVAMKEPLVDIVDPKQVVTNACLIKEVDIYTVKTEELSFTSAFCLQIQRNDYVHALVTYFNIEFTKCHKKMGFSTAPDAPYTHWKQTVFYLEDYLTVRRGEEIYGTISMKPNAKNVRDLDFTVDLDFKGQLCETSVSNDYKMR
Method: as §4, §5

[4] = tested on: BAF155 dimethylation in KMS-27 cells; assay: BAF155 dimethylation in MM cells, western blotting; assay type: cell-based, human
Method: as §6

[5] = tested on: BAF155 dimethylation in U266B1 cells; assay: BAF155 dimethylation in MM cells, western blotting; assay type: cell-based, human
Method: as §6

[6] = tested on: dimethylation of BAF155 (PRMT4 substrate); assay: BAF155 dimethylation in HEK293 cells, western blotting; assay type: cell-based, human; conditions: 3 days
Method: (§7) Graphs represent nonlinear curve fits of dimethyl-BAF155 and dimethyl-MED12 signal intensities normalized to total BAF155 or MED12, respectively. Data represent mean ± SEM of two independent experiments prepared in triplicate.
(§8) After incubation for 3 min at room temperature, sodium dodecyl sulfate (SDS) was added to a final concentration of 1%. […] Blots were blocked for 1 h in blocking buffer composed of 5% milk and 0.1% Tween 20 in phosphate-buffered saline (PBS) and then incubated overnight at 4°C in blocking buffer containing primary antibodies against MED12 (1:1000) (Abnova, Taipei, Taiwan; H00009968-A01), MED12 with asymmetrically dimethylated arginine (1:1000; gift from Dr. Mark Bedford and Cell Signaling Technology, Danvers, MA, USA), BAF155 (1:500) (Santa Cruz Biotechnology, Santa Cruz, CA, USA; sc32763), or R1064-dimethylated BAF155 (1:2000) (Millipore; ABE1339). […] The signal was detected on an Odyssey scanner (LI-COR Biosciences) at 800 and 700 nm.

[7] = tested on: panel of 89 (69 solid and 20 hematologic) cancer cell lines; assay: Cell panel viability, CellTiter-Glo, 3 days; assay type: cell-based, human; conditions: 3 μM
Method: In addition, to further validate the role of PRMT4 in MM cell growth, we performed PRMT4 knockdown in NCI-H929 cells and observed PRMT4 knockdown-induced growth inhibition (Supplementary Figure 5). Thus, pharmacological inhibition of PRMT4 by small molecules may be a therapeutic option for some MM treatment.
as §3, §1

PRMT4 [8] = molecular target: T6, PRMT4 (Homo sapiens, UniProt Q86X55); assay: Differential static light scattering (DSLS) binding; conditions: at 80 μM
T6 sequence (Q86X55 1-608): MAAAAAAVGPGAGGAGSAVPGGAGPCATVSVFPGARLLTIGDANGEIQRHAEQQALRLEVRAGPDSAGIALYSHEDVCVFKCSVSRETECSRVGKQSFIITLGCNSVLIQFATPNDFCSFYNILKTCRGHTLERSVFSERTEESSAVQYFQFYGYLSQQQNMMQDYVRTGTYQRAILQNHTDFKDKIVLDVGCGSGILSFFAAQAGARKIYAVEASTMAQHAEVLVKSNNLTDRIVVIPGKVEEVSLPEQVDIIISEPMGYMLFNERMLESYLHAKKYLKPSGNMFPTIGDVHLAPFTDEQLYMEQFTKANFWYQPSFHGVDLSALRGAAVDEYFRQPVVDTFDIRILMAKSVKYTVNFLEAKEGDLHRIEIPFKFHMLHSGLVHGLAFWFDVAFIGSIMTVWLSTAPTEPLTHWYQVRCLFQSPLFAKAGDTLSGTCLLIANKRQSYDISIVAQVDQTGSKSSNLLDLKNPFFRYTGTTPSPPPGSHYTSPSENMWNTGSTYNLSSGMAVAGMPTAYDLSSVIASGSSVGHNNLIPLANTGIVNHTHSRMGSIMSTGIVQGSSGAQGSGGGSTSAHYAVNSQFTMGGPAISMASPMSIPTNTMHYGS
Method: DSLS was performed as previously described [34] using 100 mM HEPES (pH 7.5), 150 mM NaCl, 3% DMSO, and 0.4 mg ml^−1 (6 μM) protein in a 10-μl reaction volume.

[9] = tested on: dimethylation of MED12 (PRMT4 substrate); assay: MED12 dimethylation in HEK293 cells, western blotting; assay type: cell-based, human; conditions: 3 days
Method: as §7, §8

[10] = tested on: acute myeloid leukemia, colon cancer, or lung cancer cell lines; assay: Proliferation of non-MM cancer cell lines, 6 days; assay type: cell-based, human
Method: as §1
6 days. Relative ATP concentration was calculated based on chemiluminescence relative to the 0 nM value (control). Data are presented as
mean ± standard deviation (n = 3).
as §2

PRMT7 = molecular target: T7, PRMT7 (Homo sapiens, UniProt Q9NVM4); assay: PRMT7 methyltransferase scintillation proximity assay; assay type: biochemical
T7 construct: 1–692; made in house
T7 sequence (Q9NVM4 whole entry): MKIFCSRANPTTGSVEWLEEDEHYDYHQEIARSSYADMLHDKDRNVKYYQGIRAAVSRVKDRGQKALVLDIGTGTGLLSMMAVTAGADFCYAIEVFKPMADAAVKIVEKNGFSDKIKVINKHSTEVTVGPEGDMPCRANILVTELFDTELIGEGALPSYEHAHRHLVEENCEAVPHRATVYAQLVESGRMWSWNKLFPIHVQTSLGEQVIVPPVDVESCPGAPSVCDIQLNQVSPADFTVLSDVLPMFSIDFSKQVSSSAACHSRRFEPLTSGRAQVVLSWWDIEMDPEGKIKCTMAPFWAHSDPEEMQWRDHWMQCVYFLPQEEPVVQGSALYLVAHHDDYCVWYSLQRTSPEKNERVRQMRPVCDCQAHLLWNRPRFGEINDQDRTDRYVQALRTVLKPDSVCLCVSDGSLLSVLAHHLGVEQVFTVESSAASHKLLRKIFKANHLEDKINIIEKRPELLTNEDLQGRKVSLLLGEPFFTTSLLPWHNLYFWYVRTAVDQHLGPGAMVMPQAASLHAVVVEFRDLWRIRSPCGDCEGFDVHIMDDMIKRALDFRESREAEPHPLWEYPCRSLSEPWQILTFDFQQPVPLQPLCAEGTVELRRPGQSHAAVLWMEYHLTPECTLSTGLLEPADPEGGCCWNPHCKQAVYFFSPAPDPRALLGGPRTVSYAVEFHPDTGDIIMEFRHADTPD
Method: as §4, §5

PRMT4 [11] = molecular target: T6, PRMT4; assay: Substrate competition assay (mechanism of action); assay type: biochemical; parameters: 1–608; made in house; conditions: versus SAM and substrate peptide
Method: The substrate competition assays were performed by measuring IC50 values at various concentrations of one substrate (e.g., peptide) and at saturating concentrations of the other (e.g., SAM) and vice versa, as previously described.

PRMT1 = molecular target: T8, PRMT1 (Homo sapiens, UniProt Q99873); assay: PRMT1 methyltransferase scintillation proximity assay; assay type: biochemical
T8 construct: 30–371; made in house
T8 sequence (Q99873 30-371): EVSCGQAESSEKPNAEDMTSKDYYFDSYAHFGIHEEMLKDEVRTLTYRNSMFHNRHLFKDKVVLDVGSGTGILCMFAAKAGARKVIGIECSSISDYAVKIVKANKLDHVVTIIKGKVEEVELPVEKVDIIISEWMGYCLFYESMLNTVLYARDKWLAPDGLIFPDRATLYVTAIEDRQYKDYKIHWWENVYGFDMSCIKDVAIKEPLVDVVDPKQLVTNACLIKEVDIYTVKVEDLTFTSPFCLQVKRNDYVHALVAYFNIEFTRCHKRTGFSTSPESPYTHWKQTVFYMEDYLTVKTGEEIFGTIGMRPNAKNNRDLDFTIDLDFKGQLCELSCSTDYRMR
Method: as §4

PRMT4 [12] = molecular target: T6, PRMT4; assay: PRMT4 methyltransferase scintillation proximity assay; assay type: biochemical; parameters: 1–608; made in house
Method: as §4

T1 sequence (O60678 211-531 limits assumed): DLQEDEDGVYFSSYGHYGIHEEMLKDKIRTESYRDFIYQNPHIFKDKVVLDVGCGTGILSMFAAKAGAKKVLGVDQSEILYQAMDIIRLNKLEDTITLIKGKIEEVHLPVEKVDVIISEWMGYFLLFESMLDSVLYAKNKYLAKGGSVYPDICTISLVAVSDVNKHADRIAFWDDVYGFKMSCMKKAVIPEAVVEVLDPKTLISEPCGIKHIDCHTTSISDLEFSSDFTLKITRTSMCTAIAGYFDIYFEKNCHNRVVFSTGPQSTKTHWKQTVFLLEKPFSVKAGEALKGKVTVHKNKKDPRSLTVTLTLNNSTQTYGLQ

CNCCN1CCC(c2cc(CN(C)C(=O)c3cccc(Oc4ccccc4)c3)ccn2)CC1 [TP-064, N-methyl-N-((2-(1-(2-(methylamino)ethyl)piperidin-4-yl)pyridin-4-yl)methyl)-3-phenoxybenzamide]
IC50 (PRMT3): > 10000 nM | G1 cell fraction (NCI-H929 cells): 63.5% | G2-M cell fraction (NCI-H929 cells): 20.2% | S cell fraction (NCI-H929 cells): 7.89% | sub-G1 cell fraction (NCI-H929 cells): 5.73% | cytotoxic response of K562 cells (K562 cells): weak response | IC50 (PRMT6): 1300 ± 400 nM | IC50 (PRMT9): > 10000 nM | IC50 [1]: > 10000 nM | IC50 [2]: > 10000 nM | inhibition of other methyltransferases [2]: did not inhibit | Growth at 3 μM (%) (KMS-12BM cells): -8.2% | Growth at 3 μM (%) (KMS-28BM cells): -24.1% | Growth at 3 μM (%) (KMS-12PE cells): -4.4% | Growth at 3 μM (%) (KMS-27 cells): -17.2% | Growth at 3 μM (%) (MM.1S cells): -31.0% | Growth at 3 μM (%) (KMS-20 cells): -22.5% | Growth at 3 μM (%) (U266B1 cells): -24.4% | Growth at 3 μM (%) (KMS-11 cells): -17.2% | IC50 (RPMI8226 cells; Homo sapiens, RPMI-8226, 144 h): 886 nM | Growth at 3 μM (%) (RPMI8226 cells): -58.3% | Growth at 3 μM (%) (KMS-26 cells): -19.5% | Growth at 3 μM (%) (MM.1R cells): -37.8% | IC50 ([3]; Homo sapiens, 72 h, NCI-H929, 3 days, read-out: methyl / total BAF155 IC50): 716 nM | IC50 (PRMT8): 8100 ± 600 nM | IC50 ([4]; Homo sapiens, 72 h, KMS-27, 3 days, read-out: methyl / total BAF155 IC50): 400 nM | IC50 ([5]; Homo sapiens, 72 h, U266B1, 3 days, read-out: methyl / total BAF155 IC50): 486 nM | IC50 ([6]; Homo sapiens, 72 h): 340 ± 30 nM | growth inhibition in cancer cell panel [7]: inhibited the growth of a subset of MM cell lines | increase of aggregation temperature (Tagg), DSLS (PRMT4 [8]): about 6 °C | IC50 ([9]; Homo sapiens, 72 h): 43 ± 10 nM | anti-proliferative activity [10]: did not exhibit; also recorded: no effect | IC50 (PRMT7): > 10000 nM | mode of inhibition (PRMT4 [11]): non-competitive

COCCN1CCC(c2cc(CN(C)C(=O)c3cccc(Oc4ccccc4)c3)ccn2)CC1 [TP-064N, N-((2-(1-(2-methoxyethyl)piperidin-4-yl)pyridin-4-yl)methyl)-N-methyl-3-phenoxybenzamide]
IC50 (PRMT3): > 10000 nM | effect on cell cycle (NCI-H929 cells; NCI-H929): no/little effect | G1 cell fraction (NCI-H929 cells): 53.2% | G2-M cell fraction (NCI-H929 cells): 24.1% | S cell fraction (NCI-H929 cells): 13.2% | sub-G1 cell fraction (NCI-H929 cells): 5.14% | IC50 (PRMT6): > 10000 nM | IC50 (PRMT9): > 10000 nM | IC50 [1]: > 10000 nM | IC50 [2]: > 10000 nM | inhibition of other methyltransferases [2]: completely inactive | effect on dimethyl-BAF155 level ([3]; NCI-H929, 72 h): no effect | IC50 (PRMT8): > 10000 nM | effect on dimethyl-BAF155 level ([4]; KMS-27, 72 h): no effect | effect on dimethyl-BAF155 level ([5]; U266B1, 72 h): no effect | inhibition of BAF155 dimethylation ([6]; up to 10 μM): did not inhibit | IC50 (PRMT1): > 10000 nM | IC50 (PRMT4 [12]): 2500 ± 600 nM | inhibition of MED12 dimethylation ([9]; up to 10 μM): did not inhibit | IC50 (PRMT7): > 10000 nM
